These results are taken from patent US20260152487A1 (Sitryx Therapeutics Limited, priority 2021, published 2026).

This assay has as its target T1, recombinant human PKM2 (Homo sapiens, UniProt P14618).
T1 construct: His (N); purchased R&D Systems
Kind of assay: Human PKM2 activation assay (Kinase-Glo Plus luminescent detection of generated ATP). Type of assay: biochemical. The conditions noted are these: for Emax: percentage activation normalised to DMSO vehicle (LOW) and 5 μM TEPP-46 (HIGH), read-out: hPKM2 Emax; for EC50: recombinant human PKM2 activation, 4-parameter logistic fit, read-out: hPKM2 EC50. The method in brief: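 N-His-tagged recombinant hPKM2 ([…]) with PEP and ADP was incubated with compound for 60 min at 26 °C, shaking, in 50 mM imidazole, 50 mM KCl, 7 mM MgCl2, 0.01% Tween20, 0.05% BSA, pH 7.2. ATP produced was read by Kinase-Glo Plus luminescence after 15 min.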

T1 sequence (P14618 2-531 limits assumed): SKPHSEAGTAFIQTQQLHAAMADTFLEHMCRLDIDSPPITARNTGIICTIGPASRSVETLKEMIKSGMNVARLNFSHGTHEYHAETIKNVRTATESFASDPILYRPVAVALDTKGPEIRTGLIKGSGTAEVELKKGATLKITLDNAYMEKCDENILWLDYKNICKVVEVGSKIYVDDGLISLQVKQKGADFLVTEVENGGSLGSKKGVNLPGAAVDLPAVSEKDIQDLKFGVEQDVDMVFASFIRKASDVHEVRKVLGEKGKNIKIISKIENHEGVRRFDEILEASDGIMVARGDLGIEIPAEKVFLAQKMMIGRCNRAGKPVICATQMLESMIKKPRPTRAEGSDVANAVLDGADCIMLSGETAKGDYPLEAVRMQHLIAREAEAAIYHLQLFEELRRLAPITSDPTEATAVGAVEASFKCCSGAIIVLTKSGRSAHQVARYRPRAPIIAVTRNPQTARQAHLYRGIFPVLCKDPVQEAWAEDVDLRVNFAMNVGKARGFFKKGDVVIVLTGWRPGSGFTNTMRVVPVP

In the case of `CC(O)c1cccc(Cn2ncc3cc(S(=O)(=O)c4cnn(C)c4)ccc3c2=O)n1` (stereo not shown) [Example 274, 2-((6-(1-hydroxyethyl)pyridin-2-yl)methyl)-6-((1-methyl-1H-pyrazol-4-yl)sulfonyl)phthalazin-1(2H)-one], the Emax is 93% and the EC50 stood at 350 nM. With `Cc1cccc(Cn2ncc3cc(S(=O)(=O)c4cnn(C5CNC5)c4)ccc3c2=O)n1` [Example 276, 6-((1-(azetidin-3-yl)-1H-pyrazol-4-yl)sulfonyl)-2-((6-methylpyridin-2-yl)methyl)phthalazin-1(2H)-one], the Emax is 102% and the EC50 is 518 nM. Regarding `Cc1cccc(Cn2ncc3cc(S(=O)(=O)c4cnn(CCN)c4)ccc3c2=O)n1` [Example 277, 6-((1-(2-aminoethyl)-1H-pyrazol-4-yl)sulfonyl)-2-((6-methylpyridin-2-yl)methyl)phthalazin-1(2H)-one], the Emax is 105% and the EC50 was 304 nM. Consider `COc1ccc(Cn2ncc3cc(S(=O)(=O)c4ccn(CCO)n4)ccc3c2=O)cn1` [Example 280, 6-((1-(2-hydroxyethyl)-1H-pyrazol-3-yl)sulfonyl)-2-((6-methoxypyridin-3-yl)methyl)phthalazin-1(2H)-one], for which the Emax amounted to 89.2% and the EC50 worked out at 120 nM. For the molecule `COCCn1cc(S(=O)(=O)c2ccc3c(=O)n(Cc4cc[nH]n4)ncc3c2)cn1` [Example 281, 2-((1H-pyrazol-3-yl)methyl)-6-((1-(2-methoxyethyl)-1H-pyrazol-4-yl)sulfonyl)phthalazin-1(2H)-one], the Emax is 113% and the concentration for a half-maximal effect (EC50) worked out at 382 nM. For the molecule `Cc1cccc(Cn2ncc3cc(S(=O)(=O)c4csc(C(C)O)n4)ccc3c2=O)n1` (stereo not shown) [Example 282, 6-((2-(1-hydroxyethyl)thiazol-4-yl)sulfonyl)-2-((6-methylpyridin-2-yl)methyl)phthalazin-1(2H)-one], the Emax is 109% and the EC50 came out at 155 nM.

Take `Cn1cc(S(=O)(=O)c2ccc3c(=O)n(Cc4cccc(C5(O)COC5)n4)ncc3c2)cn1` [Example 283, 2-((6-(3-hydroxyoxetan-3-yl)pyridin-2-yl)methyl)-6-((1-methyl-1H-pyrazol-4-yl)sulfonyl)phthalazin-1(2H)-one]: the Emax was found to be 78.6% and the EC50 was 441 nM. Turning to `COc1ncccc1Cn1ncc2cc(S(=O)(=O)c3cn[nH]c3)ccc2c1=O` [Example 284, 6-((1H-pyrazol-4-yl)sulfonyl)-2-((2-methoxypyridin-3-yl)methyl)phthalazin-1(2H)-one], the Emax turned out to be 72.7% and the EC50 is 452 nM. As to `COc1ccc(S(=O)(=O)c2ccc3c(=O)n(Cc4ccn(CCO)n4)ncc3c2)cn1` [Example 285, 2-((1-(2-hydroxyethyl)-1H-pyrazol-3-yl)methyl)-6-((6-methoxypyridin-3-yl)sulfonyl)phthalazin-1(2H)-one], the Emax was determined as 98.4% and the EC50 was 217 nM. For `COc1cccc(S(=O)(=O)c2ccc3c(=O)n(Cc4cc[nH]n4)ncc3c2)n1` [Example 286, 2-((1H-pyrazol-3-yl)methyl)-6-((6-methoxypyridin-2-yl)sulfonyl)phthalazin-1(2H)-one], in that order: 105% and 246 nM. The like results for `Cc1cccc(S(=O)(=O)c2ccc3c(=O)n(Cc4cc[nH]n4)ncc3c2)n1` [Example 288, 2-((1H-pyrazol-3-yl)methyl)-6-((6-methylpyridin-2-yl)sulfonyl)phthalazin-1(2H)-one] were, in that order, 93.9% and 187 nM.

As to `Cc1ccc(S(=O)(=O)c2ccc3c(=O)n(Cc4cc[nH]n4)ncc3c2)nc1` [Example 289, 2-((1H-pyrazol-3-yl)methyl)-6-((5-methylpyridin-2-yl)sulfonyl)phthalazin-1(2H)-one], the Emax amounted to 91.8% and the EC50 worked out at 319 nM. `Cc1ccc(S(=O)(=O)c2ccc3c(=O)n(Cc4cc[nH]n4)ncc3c2)cn1` [Example 290, 2-((1H-pyrazol-3-yl)methyl)-6-((6-methylpyridin-3-yl)sulfonyl)phthalazin-1(2H)-one]: the Emax is 106% and the EC50 amounted to 594 nM.

Turning to `COc1ccc(Cn2ncc3cc(S(=O)(=O)c4cn[nH]c4)ccc3c2=O)nc1C` [Example 291, 6-(1H-pyrazol-4-ylsulfonyl)-2-((5-methoxy-6-methylpyridin-2-yl)methyl)phthalazin-1(2H)-one], the Emax was determined as 82.8% and the EC50 was determined as 988 nM.

For the molecule `COc1ccc(S(=O)(=O)c2ccc3c(=O)n(Cc4ccn(CCO)n4)ncc3c2)nc1` [Example 292, 2-((1-(2-hydroxyethyl)-1H-pyrazol-3-yl)methyl)-6-((5-methoxypyridin-2-yl)sulfonyl)phthalazin-1(2H)-one], the Emax was determined as 86.6% and the EC50 was found to be 285 nM.

As for `O=c1c2ccc(S(=O)(=O)c3cn[nH]c3)cc2cnn1Cc1cnc2c(c1)CCO2` [Example 293, 6-(1H-pyrazol-4-ylsulfonyl)-2-((2,3-dihydrofuro[2,3-b]pyridin-5-yl)methyl)phthalazin-1(2H)-one], the Emax was 67.5% and the EC50 is 858 nM. In the case of `COc1cccc(Cn2ncc3cc(S(=O)(=O)c4cn[nH]c4)ccc3c2=O)n1` [Example 294, 6-((1H-pyrazol-4-yl)sulfonyl)-2-((6-methoxypyridin-2-yl)methyl)phthalazin-1(2H)-one], the Emax turned out to be 104% and the EC50 came out at 150 nM.

For `Cc1ccc(Cn2ncc3cc(S(=O)(=O)c4cn[nH]c4)ccc3c2=O)cn1` [Example 295, 6-((1H-pyrazol-4-yl)sulfonyl)-2-((6-methylpyridin-3-yl)methyl)phthalazin-1(2H)-one], the Emax is 104% and the EC50 amounted to 456 nM. The like results for `O=c1c2ccc(S(=O)(=O)c3cc[nH]n3)cc2cnn1Cc1ccc2c(n1)CCO2` [Example 299, 6-((1H-pyrazol-3-yl)sulfonyl)-2-((2,3-dihydrofuro[3,2-b]pyridin-5-yl)methyl)phthalazin-1(2H)-one] were, in that order, 104% and 31.2 nM. For `Cc1cc(Cn2ncc3cc(S(=O)(=O)c4cn[nH]c4)ncc3c2=O)n[nH]1` [Example 300, 7-((1H-pyrazol-4-yl)sulfonyl)-3-((5-methyl-1H-pyrazol-3-yl)methyl)pyrido[3,4-d]pyridazin-4(3H)-one], in that order: 93.2% and 99 nM. Regarding `Cc1ccc(F)c(Cn2ncc3cc(S(=O)(=O)c4cc[nH]n4)ccc3c2=O)n1` [Example 301], the Emax was 119% and the EC50 worked out at 131 nM. As for `O=c1c2ccc(S(=O)(=O)c3cc[nH]n3)cc2cnn1Cc1cccc(C2CC2)n1` [Example 302], the Emax turned out to be 104% and the EC50 was found to be 119 nM. Consider `Cc1nc(Cn2ncc3cc(S(=O)(=O)c4cc[nH]n4)ccc3c2=O)ccc1F` [Example 303], for which the Emax amounted to 118% and the concentration giving a half-maximal response (EC50) was 88.3 nM. With `O=c1c2ccc(S(=O)(=O)c3cnn(C(F)F)c3)cc2cnn1Cc1cc[nH]n1` [Example 305], the Emax worked out at 99.9%. In the case of `Cn1ccc(S(=O)(=O)c2ccc3c(=O)n(Cc4cc[nH]n4)ncc3c2)n1` [Example 306], the Emax was 104% and the EC50 amounted to 241 nM.

`O=c1c2ccc(S(=O)(=O)c3cnn(CCO)c3)cc2cnn1Cc1cccc(C2CC2)n1` [Example 307]: the Emax came out at 94.6% and the EC50 was 72.8 nM.

Regarding `Cn1cc(Cl)c(Cn2ncc3cc(S(=O)(=O)c4cn[nH]c4)ccc3c2=O)n1` [Example 308], the Emax was 95.5% and the EC50 was 145 nM. In the case of `Cc1cc(Cn2ncc3cc(S(=O)(=O)c4cn[nH]c4)ccc3c2=O)nn1C` [Example 310], the Emax turned out to be 107% and the EC50 came to 153 nM. `COc1ccc(Cn2ncc3cc(S(=O)(=O)c4cnn(CCO)c4)ccc3c2=O)nc1` [Example 311]: the Emax came out at 105% and the EC50 was found to be 238 nM. For `Cc1cc(Cn2ncc3cc(S(=O)(=O)c4cnn(C)c4)ccc3c2=O)n[nH]1` [Example 312], the Emax amounted to 102% and the EC50 turned out to be 215 nM. For `Cc1c[nH]nc1Cn1ncc2cc(S(=O)(=O)c3cnn(C)c3)ccc2c1=O` [Example 313], in that order: 92.3% and 196 nM. As for `Cc1cc(Cn2ncc3cc(S(=O)(=O)c4cnn(C(F)F)c4)ccc3c2=O)n[nH]1` [Example 315], the Emax was determined as 108% and the EC50 came to 241 nM. Turning to `Cc1cccc(Cn2ncc3cc(S(=O)(=O)c4n[nH]cc4F)ccc3c2=O)n1` [Example 316], the Emax came to 110% and the EC50 came out at 200 nM.

As to `Cn1cc(S(=O)(=O)c2ccc3c(=O)n(Cc4cc(Cl)[nH]n4)ncc3c2)cn1` [Example 317], the Emax worked out at 109% and the EC50 was found to be 169 nM. Consider `Cc1cccc(Cn2ncc3cc(S(=O)(=O)c4c[nH]nc4Cl)ccc3c2=O)n1` [Example 318], for which the Emax is 95.2% and the EC50 was determined as 185 nM.

`Cc1cccc(Cn2ncc3cc(S(=O)(=O)c4n[nH]cc4Cl)ccc3c2=O)n1` [Example 319]: the Emax was determined as 102% and the EC50 amounted to 157 nM. For `Cn1cc(S(=O)(=O)c2ccc3c(=O)n(Cc4cc(F)[nH]n4)ncc3c2)cn1` [Example 322], the Emax worked out at 104% and the EC50 stood at 231 nM. As for `COc1ccc(Cn2ncc3cc(S(=O)(=O)c4cc[nH]n4)ccc3c2=O)nc1` [Example 325], the Emax amounted to 111% and the EC50 turned out to be 151 nM. For `COc1ccc(F)c(Cn2ncc3cc(S(=O)(=O)c4cn[nH]c4)ccc3c2=O)n1` [Example 326], in that order: 106% and 174 nM. For `O=c1c2ccc(S(=O)(=O)c3cc[nH]n3)cc2cnn1Cc1ccn(C(F)F)n1` [Example 328], the Emax came out at 91.5% and the EC50 worked out at 162 nM.

A word on the Emax: it is the greatest response seen or fitted, relative to the assay's reference. In general, EC50 refers to the concentration giving half of the maximal effect.
